# Literature values, collected in patent publication US8530500B2, “Stable pharmaceutical omeprazole formulation for oral administration” (Vetegen, LLC, priority 2009, dated 2013).
# Columns and labels:
# [1] = not given; remark: listed apart in the source
smiles,measurement,setting,value
COc1ccc2[nH]c([S+]([O-])Cc3ncc(C)c(OC)c3C)nc2c1 (stereo not shown) [omeprazole],solubility in dimethyl sulfoxide (DMSO),DMSO,> 19 mg/mL
same,solubility in Polyethylene Glycol 400,Polyethylene Glycol 400,20 mg/mL
same,solubility in ethanol,ethanol,4.5 mg/mL
same,solubility in water,water,0.5 mg/mL
same,half-life at neutral pH,[1]; neutral pH,about 14 hours
same,stability at pH levels above 7,"[1]; pH above 7, protected from light and extremes in temperature and humidity",very stable
same,"stability in water, ethanol or acidic environments","[1]; water, ethanol or acidic environments",not very stable
